Like-named read-outs stand apart in the source and are kept apart here.
Tests used:
[1] = system: aldh5a1+/+ and aldh5a1−/− mice; assay: Time to immobilization (sedation) after acute i.p. bumetanide; assay type: in vivo
Excerpt: (§1) FIGS. 5A-5C—Intracellular chloride homeostasis, GABAergic neurotransmission and bumetanide in SSADHD (for abbreviations, see FIG. 1). (FIG. 5A) Schematic diagram of membrane ion transport and mechanism of action of bumetanide. (FIG. 5B) NKCC1 and KCC2 gene expression in the hypothalamus of aldh5a1+/+(n=5) and aldh5a1−/− (n=5) mice collected at postnatal day-of-life 20. Expression data were obtained using q-RT-PCR, validated pathway plates from Bio-Rad. (FIG. 5C) Time to sedation following acute dosing of 100 mg/kg bumetanide. Animals were evaluated at day of life (DOL) 20 and 24 for seizure events, and the time to immobilization (sedation) determined by visual recording using Noldus technology (see text). Bumetanide was administered intraperitoneally to the subject mice after 20 min. of initial observational recording, followed by an additional 20 minutes of recording. Total number of seizures was quantified in 5 min blocks of the total 40 min. recording period. Bumetanide was obtained from Enzo Life Sciences, Inc. (Farmingdale, N.Y., USA) and aseptically dissolved in DMSO vehicle. […] Abbreviations employed: n, number of animals studied; DOL, day of life; sec, seconds; min, minutes.
The potential therapeutic role of NKCC1 inhibition in SSADHD was next examined. In this context, Applicants postulated that there would be resistance to the sedative activity of NKCC1 inhibitors in SSADHD, because of the increased expression of NKCC1. Applicants treated aldh5a1+/+ and aldh5a1−/− mice with acute i.p. doses of bumetanide (25 and 100 mg/kg body weight) with video recording of seizure activity as well as assessment of the time to immobilization. […] Applicants employed Pinnacle technology (https://www.pinnaclet.com) technology for recording of animal behavior in conjunction with a rubric developed by Noldus technology to evaluate seizure activity (http://www.noldus.com/animal-behavior-research). Applicants' design was to quantify generalized tonic-clonic seizures in 5 minute epochs for 40 minutes in continuum. At the 20 minute mark, a single intraperitoneal administration of bumetanide (25 or 100 mg/kg) was given and the animals returned to the open field setting.

aldh5a1−/− mice [2] = assay: Video-recorded seizure activity after acute i.p. bumetanide; assay type: in vivo
Excerpt: as §1
The potential therapeutic role of NKCC1 inhibition in SSADHD was next examined. […] Applicants' design was to quantify generalized tonic-clonic seizures in 5 minute epochs for 40 minutes in continuum. […]

[3] = system: gamma-butyrolactone (GBL)-treated animals; assay: Block of sedative and motor effects of GBL in mice; assay type: in vivo; settings: diclofenac 25 mg/kg with NCS-382 300 mg/kg
[4] = system: aldh5a1+/+ and aldh5a1−/− mice; assay: Electrocorticography: seizures under Torin 2; assay type: in vivo; settings: 10 mg/kg, mean ± SEM
Procedure: FIG. 7—Representative electrocorticographic recordings of seizure types in an aldh5a1−/− mouse.
Studies with Torin 2 administration in aldh5a1−/− mice, beginning at DOL10 under an escalating dose paradigm, were evaluated for seizures using a three channel recording electrocorticography (Pinnacle Technology; https://www.pinnaclet.com/eeg-emg-systerns.html) and electrode-implanted aldh5a1+/+ and aldh5a1−/− mice. EEG was scored offline using semi-automated detection (Neuroscore, Data Sciences International, St. Paul, Minn.) for seizure frequency (total number of seizures), and total ictal time (cumulative time spent in seizures); where a seizure event was defined as a run of continuous spikes ≥3s in duration on the EEG. Automatically detected events were verified by visual inspection (Dhamne et al. Mol Autism 8:26 (2017)). Our prediction was that Torin 2 administration would lead to improvement in both parameters. […] If these receptors remain immature, consistent with our hypothesis for bumetanide (see above), then their subsequent up-regulation could conceivably exacerbate depolarization, and thus enhance cumulative epileptic outburst duration, as Applicants observed (Table 2). […]

aldh5a1−/− mouse brain [5] = assay: Brain gene expression (GABA(A) receptor subunits, AMPK/mTOR pathway) under Torin drugs; assay type: in vivo; settings: for lower expression of Tsc1 and 2: aldh5a1−/− mouse brain
aldh5a1−/− mice [6] = settings: cited from earlier work
aldh5a1−/− mouse brain [7] = settings: in vivo; cited from earlier work
[8] = Metabolism in human liver microsomes
[9] = system: gamma-butyrolactone (GBL)-treated animals; settings: mouse, in vivo; cited from earlier work
[10] = Pharmacokinetics after i.p. NCS-382 in C57/B6 mice; settings: i.p. 100 to 500 mg/kg
HepG2 cells [11] = assay: Cellular toxicity in HepG2 cells; settings: up to 1 mM
aldh5a1−/− NSCs = assay: Pharmacotoxicity in neural stem cells from aldh5a1−/− mice; settings: high-dose
HepG2 cells [12] = assay: Gene expression in HepG2 cells; settings: 0.5 mM, altered >4-fold
[13] = system: Madin-Darby Canine Kidney (MDCK) cells; assay: Transport in MDCK cells; assay type: in vitro ADME
Excerpt: (§2) Applicants subsequently turned attention to the transport of NCS-382 in vitro. […] Applicants examined cortical regions from the NCS-treated mice and evaluated the expression of a number of solute carriers involved in neurotransmitter transport. […] This finding is of interest in view of the significant depletion of glutathione in this animal model, the observation that glutathione is composed of glutamate, cysteine and glycine, and the earlier finding that glutamate/glutamine levels are abnormal in aldh5a1−/− brain (Gupta, J Pharmacol Exp Ther 302:180-187 (2004); Chowdhury, (2007)).

[14] = Metabolism in mouse liver microsomes
[15] = system: solute carriers (Slc) in aldh5a1−/− cortex; assay: Cortical expression of solute carriers after NCS-382 in aldh5a1−/− mice; assay type: in vivo; settings: 300 mg/kg, 7 days
Excerpt: Functional role of carriers: *17a6, *17a7, *17a8, vesicular glutamate (glu) transporter, glu cotransporter, and glu transporter 3, respectively; 1a1, *1a2, 1a3, 1a4, excitatory amino acid transporters 3, 2, 1 and 4, respectively; *32a1, GABA vesicular transporter; 38a1, Na+-coupled amino acid transporter 1 (glutamine transport); *6a1, plasma membrane GABA transporter; *6a11, 6a12, 6a13, Na+-dependent GABA presynaptic terminal reuptake, Na+/Cl−-dependent betaine, and Na+/Cl−-dependent GABA 2 transporters, respectively; 7a11, glutamate-cysteine antiporter.
as §2

GHB receptor (GHBR) = settings: relative to GHB; cited from earlier work
aldh5a1−/− mice [16] = assay: GHB and GABA by LC/MS-MS after ERT; assay type: in vivo; settings: enzyme treated animals
aldh5a1−/− mice [17] = assay: Enzyme replacement therapy: survival of aldh5a1−/− mice to DOL 30; assay type: in vivo; settings: i.p. 1 mg/kg q.d. from DOL 10; 4 of 5 mice
Excerpt: As a therapeutic approach, enzyme replacement therapy (ERT) has gained prominence in the lysosomal storage disorders, although it should be feasible in organic acidernias (Darvish-Damavandi et al. Mol Genet Metab Rep 8:51-60 (2016)). Applicants examined the feasibility of ERT in aldh5a1−/− mice using a GST (glutathione)-tagged human ALDH5A1 gene construct that overexpresses the GST-hSSADH fusion protein with accompanying ampicillin resistance in E. coli (DNASU Plasmid Repository; Ramachandran et al. (2004)). Crude extracts of E. coli were harvested that had been transfected and grown in standard LB broth supplemented with ampicillin at 37° C. overnight, pelleted and lysed with Pefabloc (protease inhibitor; Sigma-Aldrich, St. Louis, Mo. USA) and lysozyme. GST-hSSADH resident in crude lysates of E. coli was purified using Pierce™ GST spin purification kits, followed by dialysis and subsequent concentration using polyethersulfone (PES) columns. Resultant protein content was quantified using a standard BCA protein assay. The GST-tagged enzyme activity was cleaved with thrombin and the activity of ALDH5A1 determined employing spectrofluorometry based on the NAD/NADH couple (Gibson et al. Clin Chim Acta 196:219-221 (1991)).

[18] = system: GABAA receptor subunits in aldh5a1−/− mice; assay: Expression of GABA receptor genes after ERT; settings: ERT DOL 30 vs untreated DOL 21
[19] = with NADPH, parent disappearance

## CCCCNc1cc(C(=O)O)cc(S(N)(=O)=O)c1Oc1ccccc1 [bumetanide]
[1]; 25 mg/kg i.p., aldh5a1+/+ or aldh5a1−/−
  immobilization during the 40 minute recording: did not induce immobilization
[1]; 100 mg/kg i.p.
  immobilization: rapid induction of immobilization
[1]; 100 mg/kg, aldh5a1+/+
  time to sedation in wild-type mice: almost instantaneous immobilization
[1]; 100 mg/kg, aldh5a1−/−
  period from injection to onset of immobilization: 3 to 8 min
aldh5a1−/− mice [2]; 25 mg/kg, data not shown
  seizure activity without sedation: reduced seizure activity
aldh5a1−/− mice [2]; 100 mg/kg
  seizure activity between injection and onset of immobilization: no seizure activity

## O=C(O)Cc1ccccc1Nc1c(Cl)cccc1Cl [diclofenac]
[3]
  effect of co-administration on efficacy of NCS-382 to block sedative and motor effects of GBL: improved the efficacy

## Nc1ccc(-c2ccc3ncc4ccc(=O)n(-c5cccc(C(F)(F)F)c5)c4c3c2)cn1 [Torin 2]
[4]
  Seizure Frequency: 0.50 ± 0.59 avg/hr
  Total Ictal Time: 2.1 ± 1.2 seconds (avg/hr)
aldh5a1−/− mouse brain [5]; aldh5a1−/− mice
  expression of Stk11 (AMPK's activator): normalized
aldh5a1−/− mouse brain [5]
  lower expression of Tsc1 and 2: normalized
aldh5a1−/− mice [6]
  rescue from premature lethality / lifespan extension: rescue
aldh5a1−/− mice [6]; listed as Torin2
  rescue from premature lethality / lifespan extension: striking
aldh5a1−/− mice [6]; listed as torin 2
  rescue from premature lethality / lifespan extension: significantly prolong the lifespan
aldh5a1−/− mouse brain [7]
  expression of GABA(A)ergic receptor subunits: corrected (upregulated)

## NCCS(=O)(=O)O [taurine]
aldh5a1−/− mice [6]
  rescue from premature lethality / lifespan extension: rescue

## O=C(O)/C=C1\CCCc2ccccc2C1O (stereo not shown) [NCS-382]
[8]; human
  calculated hepatic clearance: 1.2 L/h/kg body weight
  concentration up to which glucuronide formation was linear: up to 100 μM
[8]; read-out: Michaelis constant (Km) for dehydrogenation, human
  Km: 12.7 ± 4.9 µM
[8]; [19]
  intrinsic clearance (Clint): 0.513 mL/min/mg protein
[9]
  blocking the motor deficits induced by GBL: effective
[10]; decreasing with increasing dose
  brain t½: 45.6 to 58.2 min
[10]; dose-dependent
  plasma elimination t½: 15 to 40.8 min
HepG2 cells [11]
  cytotoxicity (cellular integrity, survival, organelle function): little evidence
aldh5a1−/− NSCs
  pharmacotoxicity in neural stem cells: only minimal pharmacotoxicity
HepG2 cells [12]
  CD36 expression change: ↓
  HTRA4 expression change: ↑
  SERPINA3 expression change: ↓
  SLC2A3 expression change: ↓
  SLC51A expression change: ↓
  TNFRSF1A expression change: ↑
[13]
  inhibition of GHB transport: capable of inhibiting GHB transport
[13]; MDCK
  transport of the compound: actively transported
aldh5a1−/− mice [6]
  rescue from premature lethality / lifespan extension: effective
[14]; mouse
  concentration up to which glucuronide formation was linear: up to 100 μM
[14]; murine
  calculated hepatic clearance: 5.2 L/h/kg body weight
[14]; read-out: Michaelis constant (Km) for dehydrogenation, mouse
  Km: 29.5 ± 10 µM
[14]; [19]
  intrinsic clearance (Clint): 0.587 mL/min/mg protein
[15]
  expression of the glutamate-cystine antiporter: induced significant down-regulation
  solute carriers with aberrant expression normalized: normalized the aberrant expression of seven
  solute carriers without effect: had no effect on six
GHB receptor (GHBR)
  Ki, times lower than that of GHB: 14 times

## CCC(=O)N1CCN(c2ccc(-n3c(=O)ccc4cnc5ccc(-c6cnc7ccccc7c6)cc5c43)cc2C(F)(F)F)CC1 [Torin 1]
aldh5a1−/− mouse brain [5]; aldh5a1−/− brain
  decreased expression of Prkag1 and 2: normalized
aldh5a1−/− mouse brain [5]
  lower expression of Tsc1 and 2: normalized
aldh5a1−/− mice [6]
  rescue from premature lethality / lifespan extension: significantly prolong the lifespan

B1: ALDH5A1: bacterially-produced purified human ALDH5A1 (SSADH) enzyme, from GST-hSSADH fusion protein cleaved with thrombin (protein, UniProt P51649 48-535, looked up)
Succinate-semialdehyde …: AGRLAGLSAALLRTDSFVGGRWLPAAATFPVQDPASGAALGMVADCGVREARAAVRAAYEAFCRWREVSAKERSSLLRKWYNLMIQNKDDLARIITAESGKPLKEAHGEILYSAFFLEWFSEEARRVYGDIIHTPAKDRRALVLKQPIGVAAVITPWNFPSAMITRKVGAALAAGCTVVVKPAEDTPFSALALAELASQAGIPSGVYNVIPCSRKNAKEVGEAICTDPLVSKISFTGSTTTGKILLHHAANSVKRVSMELGGLAPFIVFDSANVDQAVAGAMASKFRNTGQTCVCSNQFLVQRGIHDAFVKAFAEAMKKNLRVGNGFEEGTTQGPLINEKAVEKVEKQVNDAVSKGATVVTGGKRHQLGKNFFEPTLLCNVTQDMLCTHEETFGPLAPVIKFDTEEEAIAIANAADVGLAGYFYSQDPAQIWRVAEQLEVGMVGVNEGLISSVECPFGGVKQSGLGREGSKYGIDEYLELKYVCYGGL
modifications: thrombin-cleaved from GST fusion
notes: bacterially-produced purified human ALDH5A1 (SSADH) enzyme, from GST-hSSADH fusion protein cleaved with thrombin
aldh5a1−/− mice [16]
  GABA in blood: trend toward improved levels
  GHB in the brain: significant correction
aldh5a1−/− mice [17]
  survival rate to 30 days: 80%
[18]
  expression of GABAA receptor subunits (primarily gamma, epsilon and theta): significantly corrected
